For experiment [1], the target named is T1, human GIP receptor (Homo sapiens, UniProt P48546).
T1 construct: host or cells: COS-7, transient transfection (calcium phosphate), cDNA in pCMV-Script
T1 sequence (P48546 22-466): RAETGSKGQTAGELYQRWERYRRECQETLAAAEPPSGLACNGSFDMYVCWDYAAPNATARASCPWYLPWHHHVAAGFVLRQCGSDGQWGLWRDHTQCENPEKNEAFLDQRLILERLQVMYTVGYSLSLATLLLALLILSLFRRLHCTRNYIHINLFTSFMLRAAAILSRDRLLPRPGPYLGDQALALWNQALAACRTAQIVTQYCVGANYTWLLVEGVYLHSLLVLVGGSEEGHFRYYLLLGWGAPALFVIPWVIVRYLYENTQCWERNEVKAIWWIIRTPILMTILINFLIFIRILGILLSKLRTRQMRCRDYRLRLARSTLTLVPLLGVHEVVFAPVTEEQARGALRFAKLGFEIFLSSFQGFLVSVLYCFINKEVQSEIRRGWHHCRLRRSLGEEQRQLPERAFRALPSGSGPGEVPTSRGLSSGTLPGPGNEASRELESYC
In words: cAMP accumulation assay, agonism (ligand alone). The following applies: Table 1; for Emax: COS-7, intrinsic cAMP activity. The format is cell-based. (In general: Changes in cAMP serve as a functional read-out for many G protein-coupled receptors.)

The target in experiment [2] is T1, human GIP receptor. In words: cAMP accumulation assay, antagonism of a GIP-mediated cAMP response (50-80% of max). It counts as cell-based. The following applies: transiently transfected COS-7 cells. On the procedure:
The day after, the cells were washed twice with Hepes buffered saline (HBS) buffer and incubated with HBS and 1 mM 3-isobutyl-1-methylxanthine (IBMX) for 30 min at 37° C. […] The HitHunter™ cAMP XS assay (DiscoveRx) was carried out according to the manufacturer's instructions.

[3] abbreviates: COS-7 cells, read-out: cAMP agonism nM (EC50).
The mark [4] stands for this setting: Table 1 and text, read-out: cAMP antagonism nM (IC50, antagonistic potency).

Read-outs that look alike come from different tables or passages of the source. Peptide text beside a SMILES is read from it. * marks the point of attachment. C16 diacid = O=C(O)CCCCCCCCCCCCCCC(=O)*

In turn, `CC[C@H](C)[C@H](NC(=O)[C@H](CO)NC(=O)[C@H](Cc1ccc(O)cc1)NC(=O)[C@H](CC(=O)O)NC(=O)[C@H](CO)NC(=O)[C@@H](NC(=O)[C@H](Cc1ccccc1)NC(=O)[C@@H](NC(=O)CNC(=O)[C@@H](N)CCC(=O)O)[C@@H](C)O)[C@@H](C)CC)C(=O)N[C@@H](C)C(=O)N[C@@H](CCSC)C(=O)N[C@@H](CC(=O)O)C(=O)N[C@@H](CCCCN)C(=O)N[C@H](C(=O)N[C@@H](Cc1c[nH]cn1)C(=O)N[C@@H](CCC(N)=O)C(=O)N[C@@H](CCC(N)=O)C(=O)N[C@@H](CC(=O)O)C(=O)N[C@@H](Cc1ccccc1)C(=O)N[C@H](C(=O)N[C@@H](CC(N)=O)C(=O)N[C@@H](Cc1c[nH]c2ccccc12)C(=O)N[C@@H](CC(C)C)C(=O)N[C@@H](CC(C)C)C(=O)N[C@@H](C)C(=O)N[C@@H](CCCCNC(=O)CCCCCCCCCCCCCCC(=O)O)C(=O)N[C@@H](CCCCN)C(N)=O)C(C)C)[C@@H](C)CC` [AT318, [hGIP(3-30)NH2[Q29K]-C16diacid/29]] (H-EGTFISDYSIAMDKIHQQDFVNWLLAK(C16 diacid)K-NH2; N-terminus assumed) showed an Emax on human GIP receptor [1] (COS-7 cells) of 10.8%. The EC50 at human GIP receptor [1] (setting [3]) turned out to be 131 nM. Moreover, on human GIP receptor [2] (setting [4]), the IC50 is 224 nM.

As to `CC[C@H](C)[C@H](NC(=O)[C@H](CO)NC(=O)[C@H](Cc1ccc(O)cc1)NC(=O)[C@H](CC(=O)O)NC(=O)[C@H](CO)NC(=O)[C@@H](NC(=O)[C@H](Cc1ccccc1)NC(=O)[C@@H](NC(=O)CNC(=O)[C@@H](N)CCC(=O)O)[C@@H](C)O)[C@@H](C)CC)C(=O)N[C@@H](C)C(=O)N[C@@H](CCSC)C(=O)N[C@@H](CCCCNC(=O)CCCCCCCCCCCCCCC(=O)O)C(=O)N[C@@H](CCCCN)C(=O)N[C@H](C(=O)N[C@@H](Cc1c[nH]cn1)C(=O)N[C@@H](CCC(N)=O)C(=O)N[C@@H](CCC(N)=O)C(=O)N[C@@H](CC(=O)O)C(=O)N[C@@H](Cc1ccccc1)C(=O)N[C@H](C(=O)N[C@@H](CC(N)=O)C(=O)N[C@@H](Cc1c[nH]c2ccccc12)C(=O)N[C@@H](CC(C)C)C(=O)N[C@@H](CC(C)C)C(=O)N[C@@H](C)C(=O)N[C@@H](CCC(N)=O)C(=O)N[C@@H](CCCCN)C(N)=O)C(C)C)[C@@H](C)CC` [AT306, [hGIP(3-30)NH2[D15K]-C16diacid/15]] (H-EGTFISDYSIAMK(C16 diacid)KIHQQDFVNWLLAQK-NH2; N-terminus assumed), the Emax at human GIP receptor [1] (COS-7 cells) came out at 6.6%. Moreover, the EC50 at human GIP receptor [1] (setting [3]) was determined as 13 nM. In addition, at human GIP receptor [2] (setting [4]), the IC50 came out at 53 nM.

`CC[C@H](C)[C@H](NC(=O)[C@H](CO)NC(=O)[C@H](Cc1ccc(O)cc1)NC(=O)[C@H](CC(=O)O)NC(=O)[C@H](CO)NC(=O)[C@@H](NC(=O)[C@H](Cc1ccccc1)NC(=O)[C@H](CCCCNC(=O)CCCCCCCCCCCCCCC(=O)O)NC(=O)CNC(=O)[C@@H](N)CCC(=O)O)[C@@H](C)CC)C(=O)N[C@@H](C)C(=O)N[C@@H](CCSC)C(=O)N[C@@H](CC(=O)O)C(=O)N[C@@H](CCCCN)C(=O)N[C@H](C(=O)N[C@@H](Cc1c[nH]cn1)C(=O)N[C@@H](CCC(N)=O)C(=O)N[C@@H](CCC(N)=O)C(=O)N[C@@H](CC(=O)O)C(=O)N[C@@H](Cc1ccccc1)C(=O)N[C@H](C(=O)N[C@@H](CC(N)=O)C(=O)N[C@@H](Cc1c[nH]c2ccccc12)C(=O)N[C@@H](CC(C)C)C(=O)N[C@@H](CC(C)C)C(=O)N[C@@H](C)C(=O)N[C@@H](CCC(N)=O)C(=O)N[C@@H](CCCCN)C(N)=O)C(C)C)[C@@H](C)CC` [AT296, [hGIP(3-30)NH2[T5K]-C16diacid/5]]: on human GIP receptor [1] (COS-7 cells), the Emax turned out to be 6.7%. Also, the EC50 at human GIP receptor [1] (setting [3]) was determined as 2.6 nM. Moreover, the IC50 at human GIP receptor [2] (setting [4]) worked out at 14 nM.

In turn, `CC[C@H](C)[C@H](NC(=O)[C@H](CO)NC(=O)[C@H](Cc1ccc(O)cc1)NC(=O)[C@H](CC(=O)O)NC(=O)[C@H](CO)NC(=O)[C@@H](NC(=O)[C@H](Cc1ccccc1)NC(=O)[C@@H](N)[C@@H](C)O)[C@@H](C)CC)C(=O)N[C@@H](C)C(=O)N[C@@H](CCSC)C(=O)N[C@@H](CC(=O)O)C(=O)N[C@@H](CCCNC(=N)N)C(=O)N[C@H](C(=O)N[C@@H](CCCCNC(=O)CCCCCCCCCCCCCCC(=O)O)C(=O)N[C@@H](CCC(N)=O)C(=O)N[C@@H](CCC(N)=O)C(=O)N[C@@H](CC(=O)O)C(=O)N[C@@H](Cc1ccccc1)C(=O)N[C@H](C(=O)N[C@@H](CC(N)=O)C(=O)N[C@@H](Cc1c[nH]c2ccccc12)C(=O)N[C@@H](CC(C)C)C(=O)N[C@@H](CC(C)C)C(=O)N[C@@H](C)C(=O)N[C@@H](CCC(N)=O)C(=O)N[C@@H](CCCNC(=N)N)C(N)=O)C(C)C)[C@@H](C)CC` [AT157, [hGIP(5-30)NH2[K16R; H18K; K30R]-C16diacid/18]] (H-TFISDYSIAMDRIK(C16 diacid)QQDFVNWLLAQR-NH2; N-terminus assumed) displayed an Emax on human GIP receptor [1] (COS-7 cells) of 12%. For the same molecule, the EC50 on human GIP receptor [1] (given as log EC50 (negative sign), read-out: cAMP agonism EC50 (log) (converted)) was 10 nM. Further, the IC50 at human GIP receptor [2] (given as log IC50 (negative sign), Table 1, read-out: cAMP antagonism log (converted)) is 7.94 nM; at human GIP receptor [2] (setting [4]) it was 7 nM.

On to `CC[C@H](C)[C@H](NC(=O)[C@H](CO)NC(=O)[C@H](Cc1ccc(O)cc1)NC(=O)[C@H](CC(=O)O)NC(=O)[C@H](CO)NC(=O)[C@@H](NC(=O)[C@H](Cc1ccccc1)NC(=O)[C@@H](NC(=O)CNC(=O)[C@@H](N)CCC(=O)O)[C@@H](C)O)[C@@H](C)CC)C(=O)N[C@@H](C)C(=O)N[C@@H](CCCCNC(=O)CCCCCCCCCCCCCCC(=O)O)C(=O)N[C@@H](CC(=O)O)C(=O)N[C@@H](CCCCN)C(=O)N[C@H](C(=O)N[C@@H](Cc1c[nH]cn1)C(=O)N[C@@H](CCC(N)=O)C(=O)N[C@@H](CCC(N)=O)C(=O)N[C@@H](CC(=O)O)C(=O)N[C@@H](Cc1ccccc1)C(=O)N[C@H](C(=O)N[C@@H](CC(N)=O)C(=O)N[C@@H](Cc1c[nH]c2ccccc12)C(=O)N[C@@H](CC(C)C)C(=O)N[C@@H](CC(C)C)C(=O)N[C@@H](C)C(=O)N[C@@H](CCC(N)=O)C(=O)N[C@@H](CCCCN)C(N)=O)C(C)C)[C@@H](C)CC` [AT305, [hGIP(3-30)NH2[M14K]-C16diacid/14]] (H-EGTFISDYSIAK(C16 diacid)DKIHQQDFVNWLLAQK-NH2; N-terminus assumed), for which, on human GIP receptor [1] (COS-7 cells), the Emax was determined as 12%. The EC50 on human GIP receptor [1] (setting [3]) came out at 8 nM. On human GIP receptor [2] (setting [4]), the IC50 is 166 nM.

In turn, `CCCCCCCCCCCCCCCC(=O)NCCCC[C@H](NC(=O)[C@H](CC(=O)O)NC(=O)[C@H](CCSC)NC(=O)[C@H](C)NC(=O)[C@@H](NC(=O)[C@H](CO)NC(=O)[C@H](Cc1ccc(O)cc1)NC(=O)[C@H](CC(=O)O)NC(=O)[C@H](CO)NC(=O)[C@@H](NC(=O)[C@H](Cc1ccccc1)NC(=O)[C@@H](N)[C@@H](C)O)[C@@H](C)CC)[C@@H](C)CC)C(=O)N[C@H](C(=O)N[C@@H](Cc1c[nH]cn1)C(=O)N[C@@H](CCC(N)=O)C(=O)N[C@@H](CCC(N)=O)C(=O)N[C@@H](CC(=O)O)C(=O)N[C@@H](Cc1ccccc1)C(=O)N[C@H](C(=O)N[C@@H](CC(N)=O)C(=O)N[C@@H](Cc1c[nH]c2ccccc12)C(=O)N[C@@H](CC(C)C)C(=O)N[C@@H](CC(C)C)C(=O)N[C@@H](C)C(=O)N[C@@H](CCC(N)=O)C(=O)N[C@@H](CCCCN)C(N)=O)C(C)C)[C@@H](C)CC` [AT125, [hGIP(5-30)NH2—C16/16]] yielded an Emax at human GIP receptor [1] (COS-7 cells) of 0%. The IC50 on human GIP receptor [2] (setting [4]) turned out to be 131 nM.

`CC[C@H](C)[C@H](NC(=O)[C@H](CO)NC(=O)[C@H](Cc1ccc(O)cc1)NC(=O)[C@H](CC(=O)O)NC(=O)[C@H](CO)NC(=O)[C@@H](NC(=O)[C@H](Cc1ccccc1)NC(=O)[C@@H](NC(=O)CNC(=O)[C@@H](N)CCC(=O)O)[C@@H](C)O)[C@@H](C)CC)C(=O)N[C@@H](C)C(=O)N[C@@H](CCSC)C(=O)N[C@@H](CC(=O)O)C(=O)N[C@@H](CCCCNC(=O)CCCCCCCCCCCCCCC(=O)O)C(=O)N[C@H](C(=O)N[C@@H](Cc1c[nH]cn1)C(=O)N[C@@H](CCC(N)=O)C(=O)N[C@@H](CCC(N)=O)C(=O)N[C@@H](CC(=O)O)C(=O)N[C@@H](Cc1ccccc1)C(=O)N[C@H](C(=O)N[C@@H](CC(N)=O)C(=O)N[C@@H](Cc1c[nH]c2ccccc12)C(=O)N[C@@H](CC(C)C)C(=O)N[C@@H](CC(C)C)C(=O)N[C@@H](C)C(=O)N[C@@H](CCC(N)=O)C(=O)N[C@@H](CCCCN)C(N)=O)C(C)C)[C@@H](C)CC` [AT370, [hGIP(3-30)NH2—C16diacid/16]]: on human GIP receptor [1] (intrinsic cAMP activity, COS-7 cells), the “cAMP agonism Emax” value is “no ag”. Moreover, at human GIP receptor [2] (setting [4]), the IC50 is 25 nM.

The Emax is the maximal effect, on the per cent scale that the assay sets. What is called EC50 is the concentration that produces a half-maximal response.

(Values after patent US11572399B2, “Long-acting GIP peptide analogues” (University of Copenhagen, priority 2017, dated 2023).)
